In patent publication US9211313B2, “Methods and compound to inhibit Ca2+ permeable cation conductance” (priority 2011, dated 2015):

Tests used:
[1] = tested on: mechanosensitive channel (MSC); details: previously shown; cited from earlier work
neurite = test: Neurite initiation and neurite length; assay type: cell-based
Excerpt: The peptide GsMTx4 of the present invention can be prepared for pharmaceutical use by incorporation with a pharmaceutically acceptable carrier or diluent. The peptide can be formulated into tablets, capsules, caplets and the like. Suitable carriers for tablets include calcium carbonate, starch, lactose, talc, magnesium stearate and gum acacia. The peptide can also be formulated for oral, parenteral or intravenous administration in aqueous solutions, aqueous alcohol, glycol or oil solutions or emulsions. The peptide can also be formulated for inhaling by encapsulating to facilitate alveolar absorption as has been done for insulin (Inhale Therapeutic Systems, San Carlos, Calif., inhale.com). Pharmaceutical compositions suitable for such routes of administration are well known in the art. For example, suitable forms and compositions of pharmaceutical preparations can be found in Remington's Pharmaceutical Science, 1980, 15^thed. Mack Publishing Co., Easton, Pa. Thus, the peptide GsMTx4 can be administered orally, subcutaneously, parenterally, intravenously, intramuscularly or intranasally. The peptide may also be applied to medical devices that will come into contact blood. Both L and D enantiomers of GsMTx4's and its variants can be used for the present invention. We have previously shown that both L- and D-GsMTx4 block mechanosensitive channel (MSC) activity. Although, we have noted differences in the effects of these enantiomers, both forms are effective. For example, we have observed that the ability of the mirror image form (D-enantiomer) to inhibit mechanically activated ion channels is similar to the wild type peptide (L-form) (Suchyna et al 2004). […] Thus, both L and the D forms can be used in the present invention.

red cell = assay type: cell-based; details: data not shown
[2] = tested on: LPA-induced cation conductance in human SS red cells; test: On-cell patch clamp of LPA-induced cation conductance; assay type: cell-based; details: 1 μM in the pipette
Excerpt: (§1) On-cell patch clamp: Borosilicate pipettes (Corning 7052) pulled with a Narishige two stage puller or a Sutter P97 puller and fire-polished to resistances of 10-20 MΩ were front-filled and then backfilled. Symmetric bath and pipette solutions for studies of seal resistance stability during reversibility tests of the deoxygenation-activated conductance in SAD mouse red cells were (in mM) 140 NaCl, 4 KCl, 1 CaCl2, 1 MgCl2, 10 Na HEPES, pH 7.4. These conditions yielded tight seals in 13% of patch attempts on SAD cells. For study of deoxygenation-induced monovalent cation permeation in the absence of bath Ca^2+ and Mg^2+ recorded in SAD and Berkeley mouse cells and in human cells, symmetric bath and pipette solutions contained (in mM) 150 Na methanesulfonate, 10 Na EDTA, and 10 Na HEPES, pH 7.4. These conditions yielded tight seals in 16% of patch attempts on SAD mouse red cells, 26% of attempts on Berkeley mouse cells, and 30% of attempts on human SS cells. For study of Ca^2+ permeation in human SS cells, bath and pipette solutions contained (in mM) 100 CaCl2, 10 Na HEPES, pH 7.4. These conditions yielded tights seals on 44% of attempts. For all conditions tested in human red cells, 70% of tight seals were sustained through the solution change accompanying deoxygenation to allow recording of current activity.
(§2) On-cell patch currents were recorded with the Axopatch 1-D amplifier (Axon Instruments/Molecular Devices, Sunnyvale, Calif.). Holding potential was −Vp=−50 mV (expressed as the negative of the pipette potential (e.g., equivalent to the intracellular potential with respect to the pipette). To determine current-voltage relationships (I-V curves) in Fetchex or Clampex (PCLAMP, Axon Instruments), the realtime control window in gap-free mode was used to record current traces of 10-30 sec duration at holding potentials ranging from −100 to +100 mV, in 25 mV increments. The bath reference electrode was a silver chloride wire with a 3 M KCl agar bridge. Data was filtered at 500 Hz, digitized at 2 kHz by Clampex, and analyzed offline by Fetchan and Pstat or by Clampfit subroutines of PCLAMP. Holding potentials in on-cell patch experiments were expressed as −Vp, the negative of the pipette potential.
Deoxygenation-activated flickering cation conductance observed in human SS cells contrasted with the prolonged channel openings produced by 5 μM LPA (FIG. 10A). In SS cells, LPA increased NPo […], from 0.04±0.03 to 0.82±0.18 (n=8, p<0.001; Na methanesulfonate in bath and pipette, −Vp=−50 mV; FIG. 10B). LPA-induced cation conductance was 96% inhibited by 100 uM dipyridamole in the pipette, and 97% inhibited by 1 μM GsMTx-4 in the pipette (both n=4).

KCa3.1 = target: T1, KCa3.1 (Homo sapiens, UniProt O15554); test: A23187-stimulated KCa3.1 activity measured as 86Rb influx; assay type: cell-based; details: 1 μM; intact human AA cells, 1 μM A23187, extracellular Ca2+; n=3
T1 construct: KCa3.1 activity stimulated in intact human AA cells by 1 μM A23187; endogenous in cells; host or cells: intact human AA red blood cells
T1 sequence (O15554 whole entry): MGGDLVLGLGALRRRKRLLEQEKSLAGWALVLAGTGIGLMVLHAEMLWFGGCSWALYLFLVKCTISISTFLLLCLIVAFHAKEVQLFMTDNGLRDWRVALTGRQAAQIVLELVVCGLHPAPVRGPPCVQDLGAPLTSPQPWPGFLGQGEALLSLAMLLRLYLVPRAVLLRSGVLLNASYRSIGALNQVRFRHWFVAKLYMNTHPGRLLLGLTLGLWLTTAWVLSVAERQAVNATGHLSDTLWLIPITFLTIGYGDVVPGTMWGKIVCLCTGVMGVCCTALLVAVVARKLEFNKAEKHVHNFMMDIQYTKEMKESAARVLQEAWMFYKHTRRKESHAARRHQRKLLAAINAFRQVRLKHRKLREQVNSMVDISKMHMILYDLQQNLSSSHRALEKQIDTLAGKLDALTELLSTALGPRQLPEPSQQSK

[3] = tested on: deoxygenation-activated cation conductance in human SS red cells; test: On-cell patch clamp of deoxygenation-activated cation conductance, symmetric Na methanesulfonate; assay type: cell-based; details: on-cell patch; for effect on deoxygenation-induced increase in cation conductance: 1 μM in the pipette / outside of membrane
Method: Blood cell preparation: Human SS and AA blood was obtained under IRB-approved protocols of Children's Hospital and Beth Israel Deaconess Medical Center. After buffy coat removal and 5 washes in standard human red cell wash solution containing (in mM) 150 choline Cl, 1 MgCl, and 10 Tris-MOPS, pH 7.4, red cells were resuspended in storage solution containing (in mM) 145 KCl, 15 NaCl, and 10 HEPES, pH 7.4, then kept at 4° C. until used. Human red cells allowed to settle on coverslips were mounted on an inverted microscope in a 200 μl open chamber (WPI, Sarasota, Fla.) and superfused 15 min at room temperature by bath solution containing (in mM) 150 Na methanesulfonate, 10 Na EDTA, and 10 Na HEPES, pH 7.4.
Mouse red cells allowed to settle on coverslips were superfused 15 min with bath solution containing (in mM) either 150 mM Na methanesulfonate, 10 Na EDTA, and 10 Na HEPES, pH 7.4; or 140 NaCl, 4 KCl, 1CaCl2, 1 MgCl2, 10 Na HEPES, pH 7.4. Deoxygenation was achieved by switching superfusate to the same solution gassed ≧30 min prior to the experiment with 100% N2, and by flushing of the perfusion chamber with N2 during the deoxygenation period. The resulting bath pO2 was 18 mm Hg as measured by oxygen electrode (WPI). In the experiments of FIG. 1, deoxygenated cells were subsequently re-oxygenated by exposure to the same superfusate equilibrated with room air.
Washed human or mouse red cells in solution containing (in mM) 140 NaCl, 5 KCl, 1 CaCl2, 1 MgCl2, 10 Na HEPES, pH 7.4 were exposed for 1 hr on a rotary platform in a 37° C. incubator to 25 ppm carbon monoxide (CO) in 5% CO2. CO-exposed cells were then subjected to patch clamp or to calcium imaging experiments within 60 min after return to room air, using the solutions indicated.
as §1, §2

Grammastola spatulata mechanotoxin 4 (GCLEFWWKCNPNDDKCCRPKLKCSKLFKLCNFSF; listed as Grammastola spatulata) [GsMTx-4]
effect on mechanosensitive channel (MSC) activity [1]: block
effect on neurite length (neurite): no significant effect
neurite initiation (neurite): stimulate
effect on red cell shape (red cell): did not alter
effect on LPA-induced increase in NPo [2]: prevented
inhibition of LPA-induced cation conductance ([2]; 5 μM LPA, n=4): 97%
effect on KCa3.1 activity, 86Rb influx (KCa3.1): no effect
effect on deoxygenation-induced increase in cation conductance [3]: prevented
effect on deoxygenation-induced increase in cation conductance ([3]; listed as GsMTx4): completely inhibit
NPo after deoxygenation ([3]; 1 μM in the pipette, n=6): 0.003±0.003
